Measured values as given in patent publication US10130693B2, “Peptides, combination of peptides and scaffolds for use in immunotherapeutic treatment of various cancers” (Immatics Biotechnologies GmbH, priority 2015, dated 2018).

What was measured:
CD8+ T cells = test: In vitro immunogenicity: T-cell priming with aAPCs loaded with HLA-A*24 peptide/MHC and anti-CD28, multimer staining; format: cell-based, human; settings: HLA-A*24 peptides
Procedure: CD8+ T cells were primed using artificial APCs coated with anti-CD28 mAb and HLA-A*24 in complex with SEQ ID NO: 99 peptide (FIG. 5A, left panel), SEQ ID NO: 119 peptide (FIG. 5B, left panel), SEQ ID NO: 142 peptide (FIG. 5C, left panel) and SEQ ID NO: 174 peptide FIG. 5 (D, left panel), respectively. After three cycles of stimulation, the detection of peptide-reactive cells was performed by 2D multimer staining with A*24/SEQ ID NO: 99 (FIG. 5A), A*24/SEQ ID NO: 119 (FIG. 5B), A*24/SEQ ID NO: 142 (FIG. 5C) or A*24/SEQ ID NO: 174 (FIG. 5D). Right panels (FIGS. 5A,5B,5C and 5D) show control staining of cells stimulated with irrelevant A*24/peptide complexes. Viable singlet cells were gated for CD8+ lymphocytes. Boolean gates helped excluding false-positive events detected with multimers specific for different peptides. Frequencies of specific multimer+ cells among CD8+ lymphocytes are indicated.
Generation of pMHC/anti-CD28 coated beads, T-cell stimulations and readout was performed in a highly defined in vitro system using four different pMHC molecules per stimulation condition and 8 different pMHC molecules per readout condition.
The purified co-stimulatory mouse IgG2a anti human CD28 Ab 9.3 (Jung et al., 1987) was chemically biotinylated using Sulfo-N-hydroxysuccinimidobiotin as recommended by the manufacturer (Perbio, Bonn, Germany). Beads used were 5.6 μm diameter streptavidin coated polystyrene particles (Bangs Laboratories, Illinois, USA).
800.000 beads/200 μl were coated in 96-well plates in the presence of 4×12.5 ng different biotin-pMHC, washed and 600 ng biotin anti-CD28 were added subsequently in a volume of 200 μl. Stimulations were initiated in 96-well plates by co-incubating 1×10^6 CD8+ T cells with 2×10^5 washed coated beads in 200 μl TCM supplemented with 5 ng/ml IL-12 (PromoCell) for 3 days at 37° C. Half of the medium was then exchanged by fresh TCM supplemented with 80 U/ml IL-2 and incubating was continued for 4 days at 37° C. This stimulation cycle was performed for a total of three times. For the pMHC multimer readout using 8 different pMHC molecules per condition, a two-dimensional combinatorial coding approach was used as previously described (Andersen et al., 2012) with minor modifications encompassing coupling to 5 different fluorochromes. Finally, multimeric analyses were performed by staining the cells with Live/dead near IR dye (Invitrogen, Karlsruhe, Germany), CD8-FITC antibody clone SK1 (BD, Heidelberg, Germany) and fluorescent pMHC multimers. For analysis, a BD LSRII SORP cytometer equipped with appropriate lasers and filters was used. Peptide specific cells were calculated as percentage of total CD8+ cells. Evaluation of multimeric analysis was done using the FlowJo software (Tree Star, Oregon, USA). In vitro priming of specific multimer+CD8+ lymphocytes was detected by comparing to negative control stimulations.

HLA-A*24 = test: MHC binding assay, UV-ligand exchange with beta2m ELISA (exchange yield), HLA-A*24; set-up: species or system human; settings: binding to HLA-A*24, UV-ligand exchange
Procedure, shortened: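 Peptide–MHC complexes formed by UV-ligand exchange: a UV-cleavable peptide is replaced by the test peptide, and only binders keep the complex stable. Exchange yield read by streptavidin-capture ELISA on reactions diluted 100-fold, detected with HRP anti-β2m (2 ug/ml, 1 h, 37° C) and TMB at 450 nm.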

170 (QYPFHVPLL; listed as Homo sapiens) [compound 170]
in vitro immunogenicity, Wells positive [%] (CD8+ T cells): +++ (50%-69% = +++) | Peptide exchange (MHC class I binding score, peptide exchange yield) (HLA-A*24): ++++ (>=75% = ++++)

171 (NYEDHFPLL; listed as Homo sapiens) [compound 171]
in vitro immunogenicity, Wells positive [%] (CD8+ T cells): ++ (20%-49% = ++) | Peptide exchange (MHC class I binding score, peptide exchange yield) (HLA-A*24): +++ (50%-75% = +++)

172 (VFIFKGNEF; listed as Homo sapiens) [compound 172]
in vitro immunogenicity, Wells positive [%] (CD8+ T cells): + (<20% = +) | Peptide exchange (MHC class I binding score, peptide exchange yield) (HLA-A*24): ++++ (>=75% = ++++)

174 (VYEKNGYIYF; listed as Homo sapiens) [compound 174]
in vitro immunogenicity, Wells positive [%] (CD8+ T cells): ++++ (>=70% = ++++) | Peptide exchange (MHC class I binding score, peptide exchange yield) (HLA-A*24): +++ (50%-75% = +++)

175 (LYSPVPFTL; listed as Homo sapiens) [compound 175]
in vitro immunogenicity, Wells positive [%] (CD8+ T cells): + (<20% = +) | Peptide exchange (MHC class I binding score, peptide exchange yield) (HLA-A*24): +++ (50%-75% = +++)

177 (VYFKAGLDVF; listed as Homo sapiens) [compound 177]
in vitro immunogenicity, Wells positive [%] (CD8+ T cells): + (<20% = +) | Peptide exchange (MHC class I binding score, peptide exchange yield) (HLA-A*24): +++ (50%-75% = +++)

179 (TYIPVGLGRLL; listed as Homo sapiens) [compound 179]
in vitro immunogenicity, Wells positive [%] (CD8+ T cells): +++ (50%-69% = +++) | Peptide exchange (MHC class I binding score, peptide exchange yield) (HLA-A*24): +++ (50%-75% = +++)

180 (KYLQVVGMF; listed as Homo sapiens) [compound 180]
in vitro immunogenicity, Wells positive [%] (CD8+ T cells): + (<20% = +) | Peptide exchange (MHC class I binding score, peptide exchange yield) (HLA-A*24): +++ (50%-75% = +++)

181 (VYPPYLNYL; listed as Homo sapiens) [compound 181]
in vitro immunogenicity, Wells positive [%] (CD8+ T cells): ++++ (>=70% = ++++) | Peptide exchange (MHC class I binding score, peptide exchange yield) (HLA-A*24): +++ (50%-75% = +++)

182 (AYAQLGYLLF; listed as Homo sapiens) [compound 182]
in vitro immunogenicity, Wells positive [%] (CD8+ T cells): +++ (50%-69% = +++) | Peptide exchange (MHC class I binding score, peptide exchange yield) (HLA-A*24): ++++ (>=75% = ++++)

186 (VFTTSSNIF; listed as Homo sapiens) [compound 186]
in vitro immunogenicity, Wells positive [%] (CD8+ T cells): + (<20% = +) | Peptide exchange (MHC class I binding score, peptide exchange yield) (HLA-A*24): ++++ (>=75% = ++++)

190 (LYSELTETL; listed as Homo sapiens) [compound 190]
in vitro immunogenicity, Wells positive [%] (CD8+ T cells): ++++ (>=70% = ++++) | Peptide exchange (MHC class I binding score, peptide exchange yield) (HLA-A*24): +++ (50%-75% = +++)

277 (FYTFPFQQL; listed as Homo sapiens) [compound 277]
in vitro immunogenicity, Wells positive [%] (CD8+ T cells): +++ (50%-69% = +++) | Peptide exchange (MHC class I binding score, peptide exchange yield) (HLA-A*24): +++ (50%-75% = +++)

344 (EYNSDLHQF; listed as Homo sapiens) [compound 344]
in vitro immunogenicity, Wells positive [%] (CD8+ T cells): + (<20% = +) | Peptide exchange (MHC class I binding score, peptide exchange yield) (HLA-A*24): +++ (50%-75% = +++)

345 (EYNSDLHQFF; listed as Homo sapiens) [compound 345]
in vitro immunogenicity, Wells positive [%] (CD8+ T cells): ++ (20%-49% = ++) | Peptide exchange (MHC class I binding score, peptide exchange yield) (HLA-A*24): +++ (50%-75% = +++)

349 (QYSIISNVF; listed as Homo sapiens) [compound 349]
in vitro immunogenicity, Wells positive [%] (CD8+ T cells): ++ (20%-49% = ++) | Peptide exchange (MHC class I binding score, peptide exchange yield) (HLA-A*24): +++ (50%-75% = +++)

350 (KYGNFIDKL; listed as Homo sapiens) [compound 350]
in vitro immunogenicity, Wells positive [%] (CD8+ T cells): +++ (50%-69% = +++) | Peptide exchange (MHC class I binding score, peptide exchange yield) (HLA-A*24): +++ (50%-75% = +++)

351 (IFHEVPLKF; listed as Homo sapiens) [compound 351]
in vitro immunogenicity, Wells positive [%] (CD8+ T cells): ++ (20%-49% = ++) | Peptide exchange (MHC class I binding score, peptide exchange yield) (HLA-A*24): +++ (50%-75% = +++)

353 (TYGKIDLGF; listed as Homo sapiens) [compound 353]
in vitro immunogenicity, Wells positive [%] (CD8+ T cells): + (<20% = +) | Peptide exchange (MHC class I binding score, peptide exchange yield) (HLA-A*24): +++ (50%-75% = +++)

354 (VYNEQIRDLL; listed as Homo sapiens) [compound 354]
in vitro immunogenicity, Wells positive [%] (CD8+ T cells): + (<20% = +) | Peptide exchange (MHC class I binding score, peptide exchange yield) (HLA-A*24): +++ (50%-75% = +++)

356 (NYMPGQLTI; listed as Homo sapiens) [compound 356]
in vitro immunogenicity, Wells positive [%] (CD8+ T cells): + (<20% = +) | Peptide exchange (MHC class I binding score, peptide exchange yield) (HLA-A*24): ++++ (>=75% = ++++)

358 (YYSEVPVKL; listed as Homo sapiens) [compound 358]
in vitro immunogenicity, Wells positive [%] (CD8+ T cells): ++++ (>=70% = ++++) | Peptide exchange (MHC class I binding score, peptide exchange yield) (HLA-A*24): +++ (50%-75% = +++)

359 (NYGVLHVTF; listed as Homo sapiens) [compound 359]
in vitro immunogenicity, Wells positive [%] (CD8+ T cells): + (<20% = +) | Peptide exchange (MHC class I binding score, peptide exchange yield) (HLA-A*24): ++++ (>=75% = ++++)

360 (VFSPDGHLF; listed as Homo sapiens) [compound 360]
in vitro immunogenicity, Wells positive [%] (CD8+ T cells): ++ (20%-49% = ++) | Peptide exchange (MHC class I binding score, peptide exchange yield) (HLA-A*24): +++ (50%-75% = +++)

363 (SYAELGTTI; listed as Homo sapiens) [compound 363]
in vitro immunogenicity, Wells positive [%] (CD8+ T cells): + (<20% = +) | Peptide exchange (MHC class I binding score, peptide exchange yield) (HLA-A*24): ++ (20%-49% = ++)

365 (VFIDHPVHL; listed as Homo sapiens) [compound 365]
in vitro immunogenicity, Wells positive [%] (CD8+ T cells): + (<20% = +) | Peptide exchange (MHC class I binding score, peptide exchange yield) (HLA-A*24): ++++ (>=75% = ++++)

366 (QYLELAHSL; listed as Homo sapiens) [compound 366]
in vitro immunogenicity, Wells positive [%] (CD8+ T cells): ++ (20%-49% = ++) | Peptide exchange (MHC class I binding score, peptide exchange yield) (HLA-A*24): +++ (50%-75% = +++)

367 (LYQDHMQYI; listed as Homo sapiens) [compound 367]
in vitro immunogenicity, Wells positive [%] (CD8+ T cells): ++ (20%-49% = ++) | Peptide exchange (MHC class I binding score, peptide exchange yield) (HLA-A*24): ++ (20%-49% = ++)

371 (AYSHLRYVF; listed as Homo sapiens) [compound 371]
in vitro immunogenicity, Wells positive [%] (CD8+ T cells): ++ (20%-49% = ++) | Peptide exchange (MHC class I binding score, peptide exchange yield) (HLA-A*24): ++ (20%-49% = ++)

380 (VYTGIDHHW; listed as Homo sapiens) [compound 380]
in vitro immunogenicity, Wells positive [%] (CD8+ T cells): + (<20% = +) | Peptide exchange (MHC class I binding score, peptide exchange yield) (HLA-A*24): ++++ (>=75% = ++++)
